Values after ≈ are worked out from the molar mass of the structure shown.
conditions: buffer; pH 7.4; 200.0 µM

Compound	solubility kinetic [µg/mL]
CCCNC(=O)CN1C(=O)NC(CC)(c2ccc(F)cc2)C1=O (stereo not given)	> 48.2
O=c1c([N+](=O)[O-])cccn1Cc1cccc(Br)c1	> 46.4
O=C(COc1ccc2ccccc2c1)Nc1ccncc1	6.1 (≈ 21.9 µM)
COc1ccccc1C1CCN(c2cc(O)ccc2[N+](=O)[O-])CC1	38.9 (≈ 118 µM)
O=S(=O)(NCc1nc(-c2ccccc2)no1)c1ccc(F)cc1	6.4 (≈ 19.2 µM)
COc1cc(OC)nc(/N=C/N(C)C)n1	> 31.5
COc1ccc(Br)cc1CN1CCN(c2ncccn2)CC1	38.8 (≈ 107 µM)
O=C(Nc1ccccc1F)c1cnccn1	> 32.6
COc1cc(/C=C2\SC(N)=NC2=O)cc(Cl)c1O	9.6 (≈ 33.7 µM)
CCCc1cc(=O)[nH]c(SCc2nc3ccccc3o2)n1	> 45.2
COc1cc(C#N)ccc1OCC(=O)NCCC1=CCCCC1	3.7 (≈ 11.8 µM)
CC(=O)c1ccccc1OCCCOc1cccc2cccnc12	45.8 (≈ 143 µM)
O=c1[nH]c(/C=C/c2cccc([N+](=O)[O-])c2)c([N+](=O)[O-])c(=O)[nH]1	34.8 (≈ 114 µM)
COc1cccc(-c2noc(CCC(=O)NCCc3ccccc3)n2)c1	44.3 (≈ 126 µM)
CCOc1nc(-c2ccccc2)ncc1Oc1ccccc1	< 0.3
COc1ccnc2c1c(=O)n(Cc1ccc(F)cc1)c(=O)n2C	25.2 (≈ 79.9 µM)
CS(=O)(=O)c1ccc(C(=O)OC2CCOC2=O)cc1[N+](=O)[O-] (stereo not given)	> 49.4
Cc1cccc(OCCSc2nc3ccccc3n2CCC(=O)O)c1	53.4 (≈ 150 µM)
O=C(NCC1CCCO1)c1ccc2[nH]c3c(c2c1)CCCC3 (stereo not given)	> 44.8
Cc1ccc(C(=O)NCC(=O)O)o1	25.1 (≈ 137 µM)
O=C(Nc1ccncc1)c1cccc2ccccc12	> 37.2
COc1ccc(CCNC(=O)COc2ccc3c(C)cc(=O)oc3c2)cc1	6 (≈ 16.3 µM)
COC(=O)c1cc(-c2cccc([N+](=O)[O-])c2)c2c(=O)[nH]c(=O)n(C)c2n1	1.1 (≈ 3.09 µM)
Cc1ccc2c(=O)cc(C(=O)NCc3ccccc3)oc2c1C	< 0.7
O=C(O)CCCC(=O)N1CCOCCOCCOCCOCC1	48.2 (≈ 145 µM)
Nc1nc(NCCc2ccccc2)nc(NCCO)c1[N+](=O)[O-]	46.3 (≈ 145 µM)

Compound	solubility kinetic [µg/mL]
O=C(/C=C/c1ccc([N+](=O)[O-])cc1)OCC(=O)c1ccc[nH]1	3 (≈ 9.99 µM)
O=C(CCc1ccccc1)NCc1ccc(F)cc1	34.1 (≈ 133 µM)
CSc1cccc(NC(=S)N2CCC(c3ccccc3)C2)c1 (stereo not given)	2.2 (≈ 6.7 µM)
O=C(/C=C/N1CCN(Cc2ccccc2)CC1)C(F)(F)F	> 44.7
C=CCn1c2[n+](c3ccccc3c1=O)CCCCC2.[I-]	41.6
COc1ccccc1OCCC(=O)OCC(=O)NCc1ccc(F)cc1	23.5 (≈ 65 µM)
Cc1cc([N+](=O)[O-])ccc1NC(=S)NC1CCCC1	21.9 (≈ 78.4 µM)
COc1ccc(OC)c(NC(=O)c2nc(-c3ccccc3)oc2C)c1	3.1 (≈ 9.16 µM)
COc1cccc(OCCCn2ccnc2)c1.Cl	33.1
Cc1c(CCOC(=O)c2ccc(Cl)cc2Cl)sc[n+]1CC(=O)c1ccc(Br)cc1.[Br-]	40.6
COc1ccccc1Oc1coc2cc(OCC(N)=O)ccc2c1=O	47.8 (≈ 140 µM)
O=C(O)c1ccccc1C(=O)Nc1c(-c2ccccc2)nc2ccccn12	49.6 (≈ 139 µM)
COc1ccc(NC(=O)C2C(c3ccccc3)C2(Cl)Cl)cc1 (stereo not given)	< 0.7
CN(C)Cc1c(O)ccc2c(=O)c(-c3ccc(Cl)cc3)coc12	> 49.5
COc1ccc(Cl)cc1C(=O)Nc1cccnc1Cl	< 0.3
CCN(C(=O)N1CCOCC1)c1ccccc1	34.7 (≈ 148 µM)
O=C(Cc1cccs1)Nc1ccc(F)cc1	> 35.3
Nc1nc(Nc2cccc(Cl)c2)nc(NCCO)c1[N+](=O)[O-]	6.5 (≈ 20 µM)
CC(=O)c1ccc(NC(=O)C2C3CCC(C3)C2C(=O)O)cc1 (stereo not given)	> 45.2
Cc1ccc2c(c1)/C(=C/c1ccccc1C)C(=O)N2	2.8 (≈ 11.2 µM)
COc1cccc(OCCn2cc(C=O)c3ccccc32)c1	12.2 (≈ 41.3 µM)
CC(=O)Nc1ccc(C2NC(=O)CCC2[N+](=O)[O-])cc1 (stereo not given)	31.7 (≈ 114 µM)
O=C(O)CCn1c(Cc2ccccc2)nc2ccccc21	> 42
Cc1ccc(C)c(S(=O)(=O)NCc2ccc3c(c2)OCO3)c1	47.7 (≈ 149 µM)
NC1=NC(c2ccc(Cl)cc2)C(C(=O)c2ccccc2)N1 (stereo not given)	4.9 (≈ 16.3 µM)
Nc1ccc(-c2nc3cc(N)ccc3o2)cc1	> 33.8

Compound	solubility kinetic [µg/mL]
COc1ccc(Oc2ncnc3sccc23)cc1	14.9 (≈ 57.7 µM)
CCCCCCCc1c(C#N)c(N)[nH]c(=S)c1C#N	31.5 (≈ 115 µM)
O=C(Nc1ccccc1C(F)(F)F)C1CCCC1	30.4 (≈ 118 µM)
O=C1CCc2cc(S(=O)(=O)Nc3ccccc3F)ccc2N1	> 48.1
CC(=O)O.Fc1ccc(NC(=S)Nc2cccnc2)cc1	> 46.1
O=C(c1ccc(Br)cc1)C12CN3CN(CN(C3)C1)C2	> 48.3
O=C(CC(=O)c1ccccc1)Nc1ccccc1C(F)(F)F	43.7 (≈ 142 µM)
CCCCn1cnc2c(oc3ccccc32)c1=O	> 36.3
S=C(Nc1ccc(Br)cc1)Nc1ccc2c(c1)OCCO2	1.5 (≈ 4.11 µM)
CC(C)CN1C(=O)C(=O)N(CC(=O)c2ccc[nH]2)C1=O	40.7 (≈ 147 µM)
COC(=O)C(Cc1c[nH]c2ccccc12)NC(=O)c1cccs1 (stereo not given)	> 49.3
OC1(Cc2ccccc2)CCNCC1	> 28.7
Cc1ccc(C(=O)NC23CC4CC(CC(C4)C2)C3)c(Cl)c1	0.7 (≈ 2.3 µM)
COc1ccc(CCNC(=O)c2cccnc2SC)cc1	16 (≈ 52.9 µM)
CCOc1ncccc1C(=O)Nc1ccc(F)c(Cl)c1	1 (≈ 3.39 µM)
O=C(c1cccc([N+](=O)[O-])c1)c1ccc2c(c1)C(=O)NC2=O	6.3 (≈ 21.3 µM)
Cc1onc(-c2ccc(Cl)cc2Cl)c1C(=O)/C=C/N(C)C	> 48.8
CC(=O)C(C)Oc1ccc(Cc2ncc(C(F)(F)F)cc2Cl)cc1 (stereo not given)	13.1 (≈ 36.6 µM)
Cn1c(=O)c(Sc2ccccc2)c(O)c2ccccc21	> 42.5
O=S1(=O)C=C(SCc2ccc(F)cc2)Nc2ccccc21	22.5 (≈ 70 µM)
CCCCNC(=S)N1CCN(C)CC1.O=C(O)C(=O)O	> 45.8
O=C(CCNC(=O)c1ccc([N+](=O)[O-])cc1)Oc1ccc(F)c(F)c1	> 52.5
Cc1cc(OCC(=O)N(C(C)C)C(C)C)ccc1Cl	28.8 (≈ 101 µM)
Nc1c(Br)c(=O)[nH]c(=O)n1-c1ccc(F)cc1	25.3 (≈ 84.3 µM)

Results, then the compound that gave them:

solubility kinetic [µg/mL]	Compound
1.1 (≈ 3.17 µM)	COc1ccc(N2CCN(c3cc(C)c4ccc(C)cc4n3)CC2)cc1
> 52.7	Cc1noc(NS(=O)(=O)c2ccc(NC(=O)CC(C)C)cc2)c1C
5.9 (≈ 17.1 µM)	Cc1ccc(NC(=O)CN2C(=O)c3ccccc3S2(=O)=O)cc1C
> 48.1	CCOc1cc(C)c(S(=O)(=O)NCc2ccccn2)cc1C
> 45.2	CN1CCN(C2CC(=O)N(CCc3ccccc3)C2=O)CC1 (stereo not given)
43.1 (≈ 125 µM)	Cc1ccnc(NC(=O)c2cccc(S(=O)(=O)N3CCCC3)c2)c1
> 47.4	Cc1nn(CC(=O)NC2CCS(=O)(=O)C2)c(C)c1[N+](=O)[O-] (stereo not given)
46.5 (≈ 132 µM)	COc1cc(CC(=O)OCC(=O)N2CCCCC2)cc(OC)c1OC
29.9 (≈ 115 µM)	COc1ccc(NC(=O)CC2CC3CCC2C3)cn1 (stereo not given)
45.5 (≈ 145 µM)	O=C1CC(c2cccs2)Cc2nc(NC(=O)C3CC3)ncc21 (stereo not given)
47.1 (≈ 149 µM)	Cc1ccc(NC(=O)COC(=O)C2CC2(Cl)Cl)cc1C (stereo not given)
14 (≈ 45.9 µM)	O=C(c1cc(-c2cccc(Cl)c2)on1)N1CCCCCC1
5.4 (≈ 17.4 µM)	O=C(COC(=O)c1ccc(Cl)cc1)NCC1CCCCC1
0.8 (≈ 2.5 µM)	CCOC(=O)c1csc(NC(=O)c2ccc(OCC)cc2)n1
5.4 (≈ 16.4 µM)	CC(OC(=O)c1ccc(C#N)cc1)C(=O)Nc1ccc(Cl)cn1 (stereo not given)
< 0.4	O=C(CCC1CCCCC1)Nc1ccc(C(=O)c2ccncc2)cc1
51.9 (≈ 142 µM)	O=C(N/C(=C/c1cccc([N+](=O)[O-])c1)C(=O)N1CCCC1)c1ccccc1
> 40.5	O=C(C(=O)N1CCCCCC1)c1c[nH]c2ccccc12
> 60.4	CCOC(=O)c1sc(NC(=O)CSC(=S)N2CCN(C)CC2)nc1C
< 0.2	CSc1ncc(Cl)c(C(=O)Nc2cc(C)ccc2C)n1
1.1 (≈ 4.24 µM)	CC(=O)NC(=S)Nc1cccc2ccc(C)nc12
> 41.6	O=C(O)COCC(=O)Nc1ccc(-n2cnnn2)cc1

solubility kinetic [µg/mL]	Compound
> 48.2	COc1ccc(C(=O)NCC(=O)N2CCNC(=O)C2)cc1OC
> 31.7	CCc1[nH]c(C(=O)O)c(C)c1C(=O)OC
> 48.1	CCOC(=O)/C(C#N)=C\C1=C(N2CCOCC2)CC(C)(C)OC1
3.3 (≈ 11 µM)	Cc1ccc2c(CN3CC(C)CC(C)C3)cc(=O)oc2c1C (stereo not given)
> 40.8	CC(=O)Cn1ncc(N2CCOCC2)c(Cl)c1=O
4.4 (≈ 13.8 µM)	O=C(CN1CCN(c2ccccc2)CC1)c1c[nH]c2ccccc12
20.3 (≈ 60.5 µM)	CCCNC(=S)N1CCC(NC(=O)c2ccc(OC)cc2)CC1
> 36.3	Cc1[nH]c2ccccc2c1C(=O)C(=O)NC1CC1
34.2 (≈ 127 µM)	CCC(C)C(NC(N)=O)C(=O)NC1CCC(C)CC1 (stereo not given)
> 49.6	Cc1ccc(OCC(=O)NCCCNC(=O)c2ccco2)cc1C
< 0.2	CCOC(=O)c1cc(C#N)c(Nc2ccc(C)cc2)nc1C(F)(F)F
18.3 (≈ 48.9 µM)	O=C(O)c1c(NC(=O)N(CCO)Cc2ccccc2)sc2c1CCCC2
> 47.3	COc1ccccc1-c1noc(CCC(=O)NC2CCCC2)n1
> 51.9	CCCN1CCC(NC(=S)Nc2cccc(Cl)c2Cl)CC1
12.7 (≈ 36.4 µM)	CC(=O)Nc1ccc(NC(=O)CSCc2ccccc2Cl)cc1
> 38.2	CCNc1cc(N2CCOCC2)nc(SC)n1
34.4 (≈ 106 µM)	O=C(N1CCCC1)N1CCN(S(=O)(=O)c2ccccc2)CC1
> 46.8	COc1ccc(C(=O)NCC(=O)N/N=C/c2cccnc2)cc1
29.4 (≈ 113 µM)	CCc1ccc(N2C(=O)C3CCCN3C2=S)cc1 (stereo not given)
8.1 (≈ 24.8 µM)	C/C(=N/OC(=O)c1ccc(C(F)(F)F)cc1)c1oc(C)nc1C
> 49.9	CC(C)CNC(=O)COCc1cc(-c2ccc3c(c2)OCO3)on1
4 (≈ 11.6 µM)	COc1ccccc1N1CCN(C(=S)Nc2ccc(F)cc2)CC1

From PubChem BioAssay AID1996
